ChEMBL document CHEMBL2321665, “Treatment of Obesity and Related Disorders with Acetyl-CoA Carboxylase Inhibitors” (ACS Med Chem Lett, 2013)
pIC50: −log10 of the molar value.

Legend:
[1] = target: Acetyl-CoA carboxylase 2 (Homo sapiens, UniProt O00763); assay: Inhibition of human recombinant ACC2
[2] = target: Acetyl-CoA carboxylase 1 (Homo sapiens, UniProt Q13085); assay: Inhibition of human recombinant ACC1

Chain of Acetyl-CoA carboxylase 2 (O00763 whole entry): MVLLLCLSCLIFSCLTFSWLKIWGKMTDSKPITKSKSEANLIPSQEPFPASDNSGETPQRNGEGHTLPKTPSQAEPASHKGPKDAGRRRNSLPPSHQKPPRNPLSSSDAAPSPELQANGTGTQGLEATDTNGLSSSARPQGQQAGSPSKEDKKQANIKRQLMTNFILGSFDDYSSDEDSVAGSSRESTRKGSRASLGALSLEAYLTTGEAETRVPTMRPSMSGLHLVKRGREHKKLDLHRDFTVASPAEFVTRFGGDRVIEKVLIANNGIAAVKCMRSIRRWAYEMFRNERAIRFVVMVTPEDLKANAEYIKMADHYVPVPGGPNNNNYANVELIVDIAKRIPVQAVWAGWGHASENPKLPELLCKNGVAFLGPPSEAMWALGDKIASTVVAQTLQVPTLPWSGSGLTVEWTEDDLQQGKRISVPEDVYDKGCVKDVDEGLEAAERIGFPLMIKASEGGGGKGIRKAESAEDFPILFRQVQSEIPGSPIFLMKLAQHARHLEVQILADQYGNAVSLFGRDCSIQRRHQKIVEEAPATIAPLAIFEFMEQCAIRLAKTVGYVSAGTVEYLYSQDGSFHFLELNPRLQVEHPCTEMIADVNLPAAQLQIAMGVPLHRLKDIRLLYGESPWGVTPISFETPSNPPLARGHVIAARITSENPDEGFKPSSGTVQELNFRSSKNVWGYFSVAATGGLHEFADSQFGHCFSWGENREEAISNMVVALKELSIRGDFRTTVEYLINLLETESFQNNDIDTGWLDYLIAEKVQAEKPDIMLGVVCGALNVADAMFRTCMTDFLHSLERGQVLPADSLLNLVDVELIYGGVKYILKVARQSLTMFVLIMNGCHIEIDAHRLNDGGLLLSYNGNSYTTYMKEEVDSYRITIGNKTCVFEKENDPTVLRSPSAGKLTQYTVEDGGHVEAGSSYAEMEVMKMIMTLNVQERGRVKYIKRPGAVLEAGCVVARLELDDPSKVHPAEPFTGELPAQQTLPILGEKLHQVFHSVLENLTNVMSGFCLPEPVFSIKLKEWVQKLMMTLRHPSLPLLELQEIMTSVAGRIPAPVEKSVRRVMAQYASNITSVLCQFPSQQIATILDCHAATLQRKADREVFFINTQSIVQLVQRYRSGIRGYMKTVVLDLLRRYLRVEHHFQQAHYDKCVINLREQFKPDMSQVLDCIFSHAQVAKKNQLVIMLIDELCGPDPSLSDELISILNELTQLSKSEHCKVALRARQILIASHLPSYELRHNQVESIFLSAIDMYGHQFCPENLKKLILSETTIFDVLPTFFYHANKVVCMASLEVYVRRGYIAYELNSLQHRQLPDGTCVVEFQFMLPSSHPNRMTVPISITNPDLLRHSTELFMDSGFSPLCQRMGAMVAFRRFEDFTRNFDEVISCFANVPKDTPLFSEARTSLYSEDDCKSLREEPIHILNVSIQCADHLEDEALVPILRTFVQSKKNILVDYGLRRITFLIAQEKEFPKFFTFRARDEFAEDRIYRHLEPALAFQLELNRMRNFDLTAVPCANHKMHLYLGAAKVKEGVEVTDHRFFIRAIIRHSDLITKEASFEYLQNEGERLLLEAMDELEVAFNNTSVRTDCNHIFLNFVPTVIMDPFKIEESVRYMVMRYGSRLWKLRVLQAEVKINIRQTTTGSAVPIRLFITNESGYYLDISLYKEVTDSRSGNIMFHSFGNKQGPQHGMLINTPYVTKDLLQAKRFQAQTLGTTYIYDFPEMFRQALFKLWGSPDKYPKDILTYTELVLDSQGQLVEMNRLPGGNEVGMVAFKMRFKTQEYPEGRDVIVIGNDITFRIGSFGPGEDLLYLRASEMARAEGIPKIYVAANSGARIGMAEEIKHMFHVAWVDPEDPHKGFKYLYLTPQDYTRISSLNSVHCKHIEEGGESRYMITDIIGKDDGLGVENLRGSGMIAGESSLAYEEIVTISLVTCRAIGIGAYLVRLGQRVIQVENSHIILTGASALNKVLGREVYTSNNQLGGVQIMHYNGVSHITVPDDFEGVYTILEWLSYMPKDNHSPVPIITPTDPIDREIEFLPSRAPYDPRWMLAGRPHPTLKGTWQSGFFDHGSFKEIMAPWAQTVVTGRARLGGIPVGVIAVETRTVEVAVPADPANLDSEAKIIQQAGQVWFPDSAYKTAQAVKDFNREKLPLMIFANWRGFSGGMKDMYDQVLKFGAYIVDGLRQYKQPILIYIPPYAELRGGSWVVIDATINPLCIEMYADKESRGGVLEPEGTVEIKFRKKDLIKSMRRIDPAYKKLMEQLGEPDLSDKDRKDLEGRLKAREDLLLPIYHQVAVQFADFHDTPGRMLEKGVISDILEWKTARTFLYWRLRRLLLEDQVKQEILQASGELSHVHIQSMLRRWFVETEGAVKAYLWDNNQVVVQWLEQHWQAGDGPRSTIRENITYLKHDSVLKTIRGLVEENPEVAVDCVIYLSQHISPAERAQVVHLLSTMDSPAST

| pIC50 [1] | pIC50 [2] | SMILES |
| --- | --- | --- |
| 8.89 | 8.66 | CNc1ccc2ccc(C(=O)N3CCC4(CC3)CC(=O)c3nn(C(C)(C)C)cc3C4)cc2n1 |
| 8.00 | 7.92 | CC(C)n1ncc2c1C(=O)CC1(CCN(C(=O)c3ccc4ccc(N)nc4c3)CC1)C2 |
| 8.68 | 8.30 | COc1ccc2ncc(C(=O)N3CCC4(CC3)CC(=O)c3c(cnn3C(C)C)C4)cc2c1 |
| 8.54 | 7.96 | CC(C)n1ncc2c1C(=O)CC1(CCN(C(=O)c3ccc4[nH]c(C(N)=O)cc4c3)CC1)C2 |
